Laboratory results as given in US6399574B1 (priority 1997, dated 2002).
Where a SMILES comes first, the peptide text is derived from it. [ ]: non-standard residue; d: D form. Gla = N[C@@H](CC(C(=O)O)C(=O)O)C(=O)O

Assays:
NR1-1b/NR2B NMDA subtype = molecular target: T1, NR1-1b/NR2B NMDA subtype (Homo sapiens, UniProt Q05586+Q13224); format: cell-based
T1 construct: expressed in transfected cells; host or cells: oocytes

NR1. 1B subtype = molecular target: T2, NR1. 1B subtype (Homo sapiens, UniProt Q05586); format: cell-based
T2 construct: expressed in transfected cells; host or cells: oocytes

[1] = test system: Frings audiogenic seizure susceptible mice; conditions: mouse, in vivo

T1 sequence (Q13224 27-1484, other chains not shown): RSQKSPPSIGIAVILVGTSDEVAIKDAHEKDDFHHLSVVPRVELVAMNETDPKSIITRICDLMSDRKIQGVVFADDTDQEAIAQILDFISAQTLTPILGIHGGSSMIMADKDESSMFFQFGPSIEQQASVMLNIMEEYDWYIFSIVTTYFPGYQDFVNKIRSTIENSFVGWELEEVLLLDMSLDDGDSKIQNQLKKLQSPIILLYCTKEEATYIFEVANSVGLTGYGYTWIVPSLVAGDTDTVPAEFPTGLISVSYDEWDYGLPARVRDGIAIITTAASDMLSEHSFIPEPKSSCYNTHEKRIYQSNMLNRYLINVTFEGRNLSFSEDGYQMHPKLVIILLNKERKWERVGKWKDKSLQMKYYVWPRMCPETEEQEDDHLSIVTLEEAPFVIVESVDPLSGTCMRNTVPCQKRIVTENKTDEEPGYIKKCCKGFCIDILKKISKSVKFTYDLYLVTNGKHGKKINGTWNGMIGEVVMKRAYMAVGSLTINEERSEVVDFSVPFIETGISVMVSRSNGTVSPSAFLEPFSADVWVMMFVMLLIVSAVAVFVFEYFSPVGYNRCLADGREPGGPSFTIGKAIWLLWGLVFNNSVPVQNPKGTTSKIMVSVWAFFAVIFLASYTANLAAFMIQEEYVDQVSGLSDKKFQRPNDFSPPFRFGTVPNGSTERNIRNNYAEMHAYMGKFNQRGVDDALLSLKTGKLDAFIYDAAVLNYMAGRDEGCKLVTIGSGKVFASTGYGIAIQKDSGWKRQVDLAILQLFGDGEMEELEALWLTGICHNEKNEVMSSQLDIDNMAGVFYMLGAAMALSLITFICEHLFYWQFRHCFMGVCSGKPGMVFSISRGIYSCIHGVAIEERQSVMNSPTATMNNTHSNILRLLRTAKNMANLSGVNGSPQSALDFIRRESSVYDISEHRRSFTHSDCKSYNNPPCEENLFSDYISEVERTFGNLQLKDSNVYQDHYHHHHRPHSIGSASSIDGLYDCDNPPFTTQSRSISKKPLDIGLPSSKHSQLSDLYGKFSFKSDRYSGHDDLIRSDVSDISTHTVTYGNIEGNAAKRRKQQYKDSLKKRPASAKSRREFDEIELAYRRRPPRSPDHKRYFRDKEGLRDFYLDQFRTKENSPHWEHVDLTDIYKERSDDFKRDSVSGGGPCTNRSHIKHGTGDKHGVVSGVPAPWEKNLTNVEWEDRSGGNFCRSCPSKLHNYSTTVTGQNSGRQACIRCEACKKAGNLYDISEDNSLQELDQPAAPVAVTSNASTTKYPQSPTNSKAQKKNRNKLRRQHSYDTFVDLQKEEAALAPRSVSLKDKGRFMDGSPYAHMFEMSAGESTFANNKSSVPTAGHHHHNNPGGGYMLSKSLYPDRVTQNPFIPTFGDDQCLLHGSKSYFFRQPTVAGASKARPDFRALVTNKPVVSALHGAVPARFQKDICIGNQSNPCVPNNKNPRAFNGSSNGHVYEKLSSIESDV

CC[C@H](C)[C@H](NC(=O)[C@H](CC(N)=O)NC(=O)[C@H](CC(C(=O)O)C(=O)O)NC(=O)[C@H](CCCNC(=N)N)NC(=O)[C@H](C)NC(=O)[C@H](CC(C)C)NC(=O)[C@H](CC(C(=O)O)C(=O)O)NC(=O)[C@H](C)NC(=O)[C@H](C)NC(=O)[C@H](CCSC)NC(=O)[C@H](CCCCN)NC(=O)[C@H](C)NC(=O)[C@@H](NC(=O)[C@H](CC(C(=O)O)C(=O)O)NC(=O)[C@H](CC(C(=O)O)C(=O)O)NC(=O)[C@H](CCC(=O)O)NC(=O)CN)C(C)C)C(=O)N[C@@H](C)C(=O)N[C@@H](CCCCN)C(=O)NCC(=O)N[C@H]1CSSC[C@@H](C(=O)N[C@@H](Cc2ccc(O)cc2)C(=O)N2CCC[C@H]2C(=O)O)NC(=O)[C@H](CC(N)=O)NC(=O)[C@H](C(C)C)NC(=O)[C@H](CCCCN)NC1=O [Con R]
affinity for NR1-1b/NR2B relative to NR1-1b/NR2D (NR1-1b/NR2B NMDA subtype): greater than 50 fold | inhibition of the current produced in response to glutamate and glycine (NR1-1b/NR2B NMDA subtype): approximately 95% | selectivity for the B splice variant in heteromeric complexes (NR1-1b/NR2B NMDA subtype): selective for the B splice variant | inhibition of homomeric NR1 complex, 1B subtype (NR1. 1B subtype): only inhibited the NR1. 1B subtype

CSCC[C@H](NC(=O)[C@H](CCCCN)NC(=O)[C@H](CCC(N)=O)NC(=O)[C@H](Cc1ccc(O)cc1)NC(=O)[C@H](CC(C(=O)O)C(=O)O)NC(=O)[C@H](CC(C(=O)O)C(=O)O)NC(=O)[C@H](CCC(=O)O)NC(=O)CN)C(=O)N[C@@H](CC(C)C)C(=O)N[C@@H](CC(C(=O)O)C(=O)O)C(=O)N[C@@H](CC(N)=O)C(=O)N[C@@H](CC(C)C)C(=O)N[C@@H](CCCNC(=N)N)C(=O)N[C@@H](CC(C(=O)O)C(=O)O)C(=O)N[C@@H](C)C(=O)N[C@@H](CCC(=O)O)C(=O)N[C@H](C(=O)N[C@@H](CCCCN)C(=O)N[C@@H](CCCCN)C(=O)N[C@@H](CC(N)=O)C(=O)N[C@@H](C)C(N)=O)C(C)C [Con T, Gly-Glu-Xaa1-Xaa1-Tyr-Gln-Lys-Met-Leu-Xaa2-Asn-Leu-Arg-Xaa2-Ala-Glu-Val-Lys-Lys-Asn-Ala] (H-GE[Gla][Gla]YQKML[Gla]NLR[Gla]AEVKKNA-NH2)
ED50 [1]: 0.017 nmols | ED50 (pmol, i.c.v.) [1]: 5.1 pmol
